Target: T1, RET V804L (Homo sapiens, UniProt P07949, V804L)
T1 construct: purchased Thermo Fisher Scientific (Life Technologies) SelectScreen
Experiment: SelectScreen Z'LYTE
Format: biochemical
Summary of the method: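 NU5455 was profiled across the SelectScreen Broad panel of kinase activity and binding assays. Z'LYTE reactions such as CSF1R ran at apparent Km ATP, while the Adapta CAMK1 assay used ATP listed as 10. Values are given as percent.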

T1 sequence (P07949 29-1114 V804L): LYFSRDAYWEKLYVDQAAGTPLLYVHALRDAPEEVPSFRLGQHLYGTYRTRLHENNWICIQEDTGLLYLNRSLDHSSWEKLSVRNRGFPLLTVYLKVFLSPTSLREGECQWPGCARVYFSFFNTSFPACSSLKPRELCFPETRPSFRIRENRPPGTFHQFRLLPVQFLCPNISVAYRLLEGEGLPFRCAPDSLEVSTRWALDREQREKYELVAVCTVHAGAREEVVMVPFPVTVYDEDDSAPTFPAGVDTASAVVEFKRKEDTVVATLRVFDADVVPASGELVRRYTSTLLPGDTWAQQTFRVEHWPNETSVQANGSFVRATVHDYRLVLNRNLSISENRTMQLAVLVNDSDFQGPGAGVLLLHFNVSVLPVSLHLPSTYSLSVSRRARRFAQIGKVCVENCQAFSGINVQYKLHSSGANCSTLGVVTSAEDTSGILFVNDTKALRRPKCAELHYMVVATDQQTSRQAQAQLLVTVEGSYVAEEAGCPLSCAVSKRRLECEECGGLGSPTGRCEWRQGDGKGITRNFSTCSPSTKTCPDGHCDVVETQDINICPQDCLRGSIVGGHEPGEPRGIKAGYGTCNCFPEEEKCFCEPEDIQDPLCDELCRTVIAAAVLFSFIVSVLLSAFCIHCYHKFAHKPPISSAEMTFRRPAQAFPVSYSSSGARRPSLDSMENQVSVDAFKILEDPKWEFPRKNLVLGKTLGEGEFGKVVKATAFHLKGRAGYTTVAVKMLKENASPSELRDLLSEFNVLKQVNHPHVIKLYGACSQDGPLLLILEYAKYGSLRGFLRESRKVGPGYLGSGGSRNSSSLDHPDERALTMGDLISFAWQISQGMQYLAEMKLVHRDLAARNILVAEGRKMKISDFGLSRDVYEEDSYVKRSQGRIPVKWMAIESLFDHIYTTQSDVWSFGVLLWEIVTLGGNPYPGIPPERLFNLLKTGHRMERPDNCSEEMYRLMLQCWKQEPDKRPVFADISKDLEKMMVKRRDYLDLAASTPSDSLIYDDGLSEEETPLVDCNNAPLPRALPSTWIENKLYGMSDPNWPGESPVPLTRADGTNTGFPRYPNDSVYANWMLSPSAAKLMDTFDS

CN(C(=O)CN1CCOCC1)c1ccc2sc3c(-c4cccc5c(=O)cc(N6CC7CCC(C6)O7)oc45)cccc3c2c1 [NU5455]
inhibition at 1 µM: -9.1%
